Measured values published in ChEMBL document CHEMBL1201862, “PubChem BioAssay data set” (2004).
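Test compounds were applied to cells in 96-well plates for 48 hours at 5 doses. Abbreviation: GI50, concentration required for 50% inhibition of growth.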 Active and inactive are the calls of the source. Cut-off read from the data, not from the text of the source: active = GI50 up to about 1.1 µM and inactive = higher.

Columns and labels:
Assay in all cases: NCI-60 cell line screen, 48 h
T47D = system: T47D
MDA-N = system: MDA-N
SF-268 = system: SF-268
SK-OV-3 = system: SK-OV-3
M14 = system: M14
SW-620 = system: SW-620
UO-31 = system: UO-31
UACC-62 = system: UACC-62
OVCAR-5 = system: OVCAR-5
OVCAR-3 = system: OVCAR-3
SNB-19 = system: SNB-19
NCI-H23 = system: NCI-H23
A549 = system: A549
HT-29 = system: HT-29
HCT-116 = system: HCT-116
OVCAR-4 = system: OVCAR-4
CCRF-CEM = system: CCRF-CEM
SK-MEL-5 = system: SK-MEL-5
U-251 = system: U-251
SNB-75 = system: SNB-75
PC-3 = system: PC-3
HOP-92 = system: HOP-92
NCI-H226 = system: NCI-H226
SK-MEL-28 = system: SK-MEL-28
MCF7 = system: MCF7
NCI-H522 = system: NCI-H522
SN12C = system: SN12C
K562 = system: K562
786-0 = system: 786-0
EKVX = system: EKVX
MDA-MB-435 = system: MDA-MB-435
HCC 2998 = system: HCC 2998
SR = system: SR
NCI-H460 = system: NCI-H460
A498 = system: A498
ACHN = system: ACHN
DU-145 = system: DU-145
COLO 205 = system: COLO 205
BT-549 = system: BT-549
LOX IMVI = system: LOX IMVI
SK-MEL-2 = system: SK-MEL-2
SF-295 = system: SF-295
HL-60 = system: HL-60
RPMI-8226 = system: RPMI-8226
HOP-62 = system: HOP-62
MDA-MB-231 = system: MDA-MB-231
IGROV-1 = system: IGROV-1
CAKI-1 = system: CAKI-1
OVCAR-8 = system: OVCAR-8
MOLT-4 = system: MOLT-4
Malme-3M = system: Malme-3M
UACC-257 = system: UACC-257
SF-539 = system: SF-539
RXF 393 = system: RXF 393
TK-10 = system: TK-10
KM12 = system: KM12
Hs-578T = system: Hs-578T
HCT-15 = system: HCT-15
NCI/ADR-RES = system: NCI/ADR-RES

O=C(CCl)N1CCCCC1C1(c2cc3ccccc3[nH]2)OCCO1 (centres undefined) was tested, and the GI50 (T47D) was 7.45 µM (inactive), the GI50 (MDA-N) was 2.34 µM (inactive) and the GI50 (SF-268) was 3.22 µM (inactive). The GI50 (SK-OV-3) was 5.78 µM (inactive), the GI50 (M14) was 3.99 µM (inactive) and the GI50 (SW-620) was 4.19 µM (inactive). The GI50 (UO-31) was 3.73 µM (inactive), the GI50 (UACC-62) was 3.14 µM (inactive) and the GI50 (OVCAR-5) was 4.17 µM (inactive). For the same compound, the GI50 (OVCAR-3) was 2.01 µM (inactive), the GI50 (SNB-19) was 10.6 µM (inactive) and the GI50 (NCI-H23) was 2.21 µM (inactive). For the same compound, the GI50 (A549) was 5.61 µM (inactive), the GI50 (HT-29) was 3.66 µM (inactive) and the GI50 (HCT-116) was 2.84 µM (inactive). The GI50 (OVCAR-4) was 1.73 µM (inactive), the GI50 (CCRF-CEM) was 0.281 µM (active) and the GI50 (SK-MEL-5) was 3.08 µM (inactive). The GI50 (U-251) was 2.86 µM (inactive), the GI50 (SNB-75) was 2.65 µM (inactive) and the GI50 (PC-3) was 2.98 µM (inactive). For the same compound, the GI50 (HOP-92) was 1 µM (active), the GI50 (NCI-H226) was 6.53 µM (inactive) and the GI50 (SK-MEL-28) was 11.6 µM (inactive). The GI50 (MCF7) was 2.56 µM (inactive), the GI50 (NCI-H522) was 0.194 µM (active) and the GI50 (SN12C) was 2.25 µM (inactive). For the same compound, the GI50 (K562) was 1.93 µM (inactive), the GI50 (786-0) was 0.869 µM (active) and the GI50 (EKVX) was 1.5 µM (inactive). For the same compound, the GI50 (MDA-MB-435) was 3.36 µM (inactive), the GI50 (HCC 2998) was 10.4 µM (inactive) and the GI50 (SR) was 0.454 µM (active). For the same compound, the GI50 (NCI-H460) was 9.71 µM (inactive), the GI50 (A498) was 4.6 µM (inactive) and the GI50 (ACHN) was 5 µM (inactive). The GI50 (DU-145) was 5.11 µM (inactive), the GI50 (COLO 205) was 2.94 µM (inactive) and the GI50 (BT-549) was 2.05 µM (inactive). The GI50 (LOX IMVI) was 0.0349 µM (active), the GI50 (SK-MEL-2) was 7.98 µM (inactive) and the GI50 (SF-295) was 3.77 µM (inactive). For the same compound, the GI50 (HL-60) was 0.685 µM (active), the GI50 (RPMI-8226) was 2.12 µM (inactive) and the GI50 (HOP-62) was 3.12 µM (inactive). For the same compound, the GI50 (MDA-MB-231) was 2.69 µM (inactive), the GI50 (IGROV-1) was 0.198 µM (active) and the GI50 (CAKI-1) was 0.828 µM (active). The GI50 (OVCAR-8) was 4.24 µM (inactive), the GI50 (MOLT-4) was 1.85 µM (inactive) and the GI50 (Malme-3M) was 4.47 µM (inactive). For the same compound, the GI50 (UACC-257) was 4.7 µM (inactive), the GI50 (SF-539) was 1.65 µM (inactive) and the GI50 (RXF 393) was 3.8 µM (inactive). The GI50 (TK-10) was 3.5 µM (inactive), the GI50 (KM12) was 1.77 µM (inactive) and the GI50 (Hs-578T) was 3.3 µM (inactive). For the same compound, the GI50 (HCT-15) was 4.82 µM and the GI50 (NCI/ADR-RES) was 3.05 µM (inactive).
